The values that follow come from ChEMBL document CHEMBL2028040, “Malaria Box”.

In one data set the test system is Plasmodium falciparum. In words: MMV: Inhibition of Plasmodium falciparum 3D7 (EC50). Format: functional, organism-based.
The subject of the next data set is Trypanosoma cruzi. In words: MMV: Inhibition of Trypanosoma cruzi (Tulahuen C4 LacZ) (Chagas in vitro). The class given is functional, organism-based.
Data set [1] concerns Trypanosoma brucei brucei. In words: MMV: Inhibition of Trypanosoma brucei brucei (Squib 427) (HAT in vitro). The class given is functional, organism-based.
For data set [2], the system named is Trypanosoma brucei rhodesiense. In words: MMV: Inhibition of Trypanosoma brucei rhodesiense (STIB 900) (HAT in vitro). Format: functional, organism-based.
Another data set deals with Leishmania infantum. In words: MMV: Inhibition of Leishmania infantum (MHOM/MA/BE/67) in vitro. The class given is functional, organism-based.
Data set [3] can be described thus: MMV: Cytotoxicity against human fibroblasts (MRC-5) cells. Particulars: MRC-5 cells (human fibroblasts).

`C[n+]1c2ccccc2nc2ccc(NCCO)cc21` displayed a concentration for a half-maximal effect (EC50) in the data set with Plasmodium falciparum of 0.296 µM. For the same compound, the IC50 is 16 µM in the data set on Trypanosoma cruzi; 14 µM in data set [1]; 16 µM in data set [2]; more than 32 µM with Leishmania infantum; more than 32 µM in data set [3].

`Cc1cc(N2CCN(C3CCCC3)CC2)n2c(nc3ccccc32)c1C#N`: a half-maximal response in the data set with Plasmodium falciparum (EC50) required 0.683 µM. Moreover, the IC50 (in the data set on Trypanosoma cruzi; in data set [1]; in data set [2]; in the data set on Leishmania infantum; in data set [3]) was more than 32 µM throughout.

As to `OC(CNCC1CCCO1)Cn1c2ccc(Cl)cc2c2cc(Cl)ccc21` (stereo not given), in the data set with Plasmodium falciparum, the 50% effective concentration (EC50) was determined as 1.06 µM. Besides, the 50% inhibitory concentration (IC50) in the data set on Trypanosoma cruzi was 19.2 µM; in data set [1], 10 µM; in data set [2], 6.12 µM; in the data set with Leishmania infantum, 16.1 µM; in data set [3], more than 32 µM.

In turn, `COc1ccc(Nc2nc(NCc3ccccc3)c3ccccc3n2)cc1` returned an EC50 in the data set with Plasmodium falciparum of 0.589 µM. In addition, the half-inhibitory concentration (IC50) with Trypanosoma cruzi was determined as 3.55 µM; in data set [1] it was 3.84 µM; in data set [2], 4.03 µM; in the data set on Leishmania infantum it was 1.01 µM; in data set [3], 12.4 µM.

Turning to `CCN(CC)CCNc1ccnc2cc(Cl)ccc12`, in the data set with Plasmodium falciparum, the concentration for a half-maximal effect (EC50) was 0.0581 µM. Besides, the IC50 with Trypanosoma cruzi is 6.35 µM; in data set [1], 10.2 µM; in data set [2], 10.3 µM; with Leishmania infantum, 17.3 µM; in data set [3], more than 32 µM.

In the case of `COc1cccc(Cn2c(Oc3ccccc3)nc3c2c(=O)n(C)c(=O)n3C)c1`, the EC50 in the data set with Plasmodium falciparum was determined as 1.39 µM. The 50% inhibitory concentration (IC50) (in the data set with Trypanosoma cruzi; in data set [1]; in data set [2]; in the data set with Leishmania infantum; in data set [3]) was more than 32 µM each time.

In turn, `COc1ccc(C2c3ccc4ccccc4c3Oc3ncn(CCCn4ccnc4)c(=N)c32)cc1OC` (stereo not given) showed a half-maximal effective concentration (EC50) with Plasmodium falciparum of 1.79 µM. Also, the 50% inhibitory concentration (IC50) was 4.2 µM in the data set with Trypanosoma cruzi; 15.5 µM in data set [1]; 1.8 µM in data set [2]; 5.38 µM in the data set on Leishmania infantum; 10.1 µM in data set [3].

For the compound `Cc1sc(NC(=O)c2ccccc2)c(C(c2cccs2)N2CCN(c3ccccc3)CC2)c1C` (stereo not given), in the data set with Plasmodium falciparum, the EC50 was 1.18 µM. Also, the IC50 with Trypanosoma cruzi is more than 32 µM; in data set [1] it was 6.32 µM; in data set [2], 4 µM; in the data set on Leishmania infantum, 12.7 µM; in data set [3], more than 32 µM.

For `CCN(CC)CCNc1ncnc2c1[nH]c1ccc(Cl)cc12`, it took 0.406 µM to reach a half-maximal effect in the data set on Plasmodium falciparum (EC50). Also, the concentration for half-maximal inhibition (IC50) was 10.7 µM in the data set on Trypanosoma cruzi; 4.09 µM in data set [1]; 3.73 µM in data set [2]; 16.2 µM in the data set with Leishmania infantum; more than 32 µM in data set [3].

`COc1ccc2nc(C)cc(Nc3ccccc3O)c2c1` showed an EC50 in the data set on Plasmodium falciparum of 0.686 µM. In addition, the IC50 (in the data set with Trypanosoma cruzi; in data set [1]; in data set [2]; in the data set on Leishmania infantum; in data set [3]) was more than 32 µM throughout.

As for `OC1=C2C(=Nc3ccccc3SC2c2ccccc2)c2ccccc21` (stereo not given), the EC50 with Plasmodium falciparum is 0.89 µM. Besides, the half-maximal inhibitory concentration (IC50) with Trypanosoma cruzi is 13.9 µM; in data set [1], 4.15 µM; in data set [2] it was 3.56 µM; in the data set with Leishmania infantum, 16.2 µM; in data set [3], 15.7 µM.

`COc1ccc(CCn2c(=N)c(C(=O)NCc3cccnc3)cc3c(=O)n4cccc(C)c4nc32)cc1` came in with a half-maximal effective concentration (EC50) in the data set on Plasmodium falciparum of 0.373 µM. For the same compound, the IC50 with Trypanosoma cruzi was 13.2 µM; in data set [1] it was 4 µM; in data set [2], 3.6 µM; with Leishmania infantum, 12.7 µM; in data set [3], more than 32 µM.

In the data set with Plasmodium falciparum, `COc1cc2c(cc1OC)C1=NNC(=O)C1=NC(C)(C)C2` had a concentration giving a half-maximal response (EC50) of 1.04 µM. For the same compound, the half-maximal inhibitory concentration (IC50) is 3.59 µM with Trypanosoma cruzi; 12.9 µM in data set [1]; 6.64 µM in data set [2]; 4.03 µM with Leishmania infantum; more than 32 µM in data set [3].

Take `Nc1ccn([C@@H]2O[C@H](CO)[C@@H](O)[C@H]2O)c(=O)n1` [CYTIDINE]: it took 0.385 µM to reach a half-maximal effect with Plasmodium falciparum (EC50). Further, the IC50 (in the data set on Trypanosoma cruzi; in data set [1]; in data set [2]; in the data set with Leishmania infantum; in data set [3]) was more than 32 µM in each case.

Consider `CN(N=O)C1=C(NC2CCCCC2)C(=O)c2ccccc2C1=O`, for which a half-maximal response in the data set on Plasmodium falciparum (EC50) required 1.19 µM. Besides, the IC50 is 12.8 µM in the data set with Trypanosoma cruzi; 16.5 µM in data set [1]; 4.61 µM in data set [2]; more than 32 µM with Leishmania infantum; more than 32 µM in data set [3].

In the case of `COc1ccc2c(c1)OC(O)(C(F)(F)C(F)(F)F)CC2=O` (stereo not given), the 50% effective concentration (EC50) with Plasmodium falciparum was found to be 0.283 µM. Further, the 50% inhibitory concentration (IC50) in the data set on Trypanosoma cruzi was 16.1 µM; in data set [1] it was more than 32 µM; in data set [2], 17.1 µM; with Leishmania infantum, 25.4 µM; in data set [3] it was 25.6 µM.

In the case of `CCOc1c(Cl)cc(CNCC(O)c2ccccc2)cc1OC` (stereo not given), a half-maximal response in the data set with Plasmodium falciparum (EC50) required 1.05 µM. The half-maximal inhibitory concentration (IC50) in the data set with Trypanosoma cruzi was more than 32 µM; in data set [1] it was 11.9 µM; in data set [2], 16.1 µM; in the data set on Leishmania infantum, more than 32 µM; in data set [3], more than 32 µM.

Compound `Nc1nc(Nc2cccc(F)c2)nc2ccccc12` yielded an EC50 in the data set on Plasmodium falciparum of 1 µM. In addition, the IC50 was 20.2 µM in the data set with Trypanosoma cruzi; 27.3 µM in data set [1]; 16.8 µM in data set [2]; 16 µM in the data set with Leishmania infantum; more than 32 µM in data set [3].

As for `COc1cc(C(=O)Nc2nc3c(cc4c5c(cccc53)CC4)s2)cc(OC)c1OC`, it took 0.898 µM to reach a half-maximal effect in the data set on Plasmodium falciparum (EC50). Also, the concentration for half-maximal inhibition (IC50) is more than 32 µM in the data set with Trypanosoma cruzi; more than 32 µM in data set [1]; more than 32 µM in data set [2]; 16.2 µM with Leishmania infantum; more than 32 µM in data set [3].

`Cc1ccc(-c2cc3c(SCC(=O)Nc4cc(C(F)(F)F)ccc4Cl)nccn3n2)cc1`: it took 0.0928 µM to reach a half-maximal effect with Plasmodium falciparum (EC50). For the same compound, the IC50 (in the data set with Trypanosoma cruzi; in data set [1]; in data set [2]; in the data set with Leishmania infantum; in data set [3]) was more than 32 µM in each case.

As for `CCn1nc(-c2ccc(C(=O)OC)cc2)nc2c(=O)n(C)c(=O)nc1-2`, the 50% effective concentration (EC50) in the data set on Plasmodium falciparum came out at 0.693 µM. Further, the IC50 was found to be 0.81 µM in the data set on Trypanosoma cruzi; 0.28 µM in data set [1]; 0.803 µM in data set [2]; 4.06 µM in the data set on Leishmania infantum; 3.53 µM in data set [3].

As for `COc1ccc(-c2c(C)nn3c(N)c(C#N)cnc23)cc1OC`, a half-maximal response in the data set with Plasmodium falciparum (EC50) required 0.477 µM. Further, the half-inhibitory concentration (IC50) is more than 32 µM in the data set with Trypanosoma cruzi; more than 32 µM in data set [1]; more than 32 µM in data set [2]; more than 32 µM with Leishmania infantum; 27.6 µM in data set [3].

Consider `COc1cccc(Nc2nc(NCCO)c3ccccc3n2)c1`, for which, in the data set on Plasmodium falciparum, the concentration giving a half-maximal response (EC50) is 0.854 µM. Further, the half-inhibitory concentration (IC50) in the data set with Trypanosoma cruzi turned out to be 13.3 µM; in data set [1], 14.3 µM; in data set [2], 6.75 µM; in the data set on Leishmania infantum, 4.32 µM; in data set [3], 26.3 µM.

In the data set on Plasmodium falciparum, `Cc1cc(NC(=O)c2cccc(C(F)(F)F)c2)n(-c2nc(-c3ccc4c(c3)OCO4)cs2)n1` registered an EC50 of 0.959 µM. The concentration for half-maximal inhibition (IC50) with Trypanosoma cruzi was more than 32 µM; in data set [1], more than 32 µM; in data set [2], more than 32 µM; in the data set on Leishmania infantum, 16.2 µM; in data set [3] it was more than 32 µM.

In the data set with Plasmodium falciparum, `O=C(NNc1cc(N2CCCC2)nc(N2CCCC2)n1)c1ccccc1` registered an EC50 of 1.33 µM. The IC50 in the data set on Trypanosoma cruzi is 13.7 µM; in data set [1] it was more than 32 µM; in data set [2] it was 16.5 µM; in the data set on Leishmania infantum, 25.4 µM; in data set [3], more than 32 µM.
